Measured values taken from the NIST ThermoML archive (doi:10.1021/je0502400).

Columns and labels:
[1] = mn = molality of the nth substance listed, in mol/kg; settings: 298 K, 101 kPa, Liquid
[2] = molar heat capacity at constant pressure; mn = molality of the nth substance listed, in mol/kg; settings: 298.15 K, 101 kPa, Liquid, Flow calorimetry

O=C([O-])CC(=O)[O-].[Na+].[Na+] [sodium malonate] + O
Settings	mass density, [1] [kg/m3]	molar heat capacity at constant pressure, [2] [J/K/mol]
m1 = 0.0102	998.203	75.19
m1 = 0.02019	999.271	75.06
m1 = 0.04023	1001.44	74.8
m1 = 0.05997	1003.61	74.54
m1 = 0.09952	1007.82	74.04
m1 = 0.2049	1018.85	72.81
m1 = 0.3005	1028.55	71.8
m1 = 0.4985	1048.21	69.9
m1 = 0.7356	1070.79	68.01
m1 = 0.9746	1092.13	66.27
m1 = 1.481	1134.8	63.33
m1 = 1.995	1173.58	61.03
m1 = 2.993	1241.78	–
m1 = 3.991	1296.36	–

O=C([O-])C(=O)[O-].[Na+].[Na+] [sodium oxalate] + O
Settings	mass density, [1] [kg/m3]	molar heat capacity at constant pressure, [2] [J/K/mol]
m1 = 0.009986	998.164	75.31
m1 = 0.01989	999.268	75.27
m1 = 0.03998	1001.48	75.22
m1 = 0.0603	1003.67	75.17
m1 = 0.09999	–	75.08
m1 = 0.1502	1013.28	75
m1 = 0.1996	1018.42	74.93
m1 = 0.2494	1023.55	74.88

O=C([O-])C(=O)[O-].[K+].[K+] [potassium oxalate] + O
Settings	mass density, [1] [kg/m3]	molar heat capacity at constant pressure, [2] [J/K/mol]
m1 = 0.01029	998.319	75.17
m1 = 0.01993	999.506	75
m1 = 0.03995	1001.9	74.67
m1 = 0.06118	1004.41	74.34
m1 = 0.1011	1009.21	73.71
m1 = 0.1971	1020.46	72.27
m1 = 0.2996	1032.09	70.86
m1 = 0.501	1054.2	68.3
m1 = 0.7483	1080.17	65.5
m1 = 0.9987	1105.27	63
m1 = 1.197	1124.39	61.21
m1 = 1.396	1142.79	59.54
m1 = 1.497	1151.71	58.76

[Cl-].[Na+] [sodium chloride] + O
Settings	mass density, m1 = 0.9998 [kg/m3]	mass density, m1 = 1.999 [kg/m3]	mass density, m1 = 3 [kg/m3]	molar heat capacity at constant pressure, m1 = 0.9998 [J/K/mol]	molar heat capacity at constant pressure, m1 = 1.999 [J/K/mol]	molar heat capacity at constant pressure, m1 = 3 [J/K/mol]
[1]	1036.18	1072.22	1105.7	–	–	–
[2]	–	–	–	73.34	72.23	71.74

O=C([O-])CCC(=O)[O-].[Na+].[Na+] [disodium succinate] + O
Settings	mass density, [1] [kg/m3]	molar heat capacity at constant pressure, [2] [J/K/mol]
m1 = 0.009952	998.141	75.32
m1 = 0.02038	999.243	75.31
m1 = 0.04187	1001.53	75.28
m1 = 0.06054	1003.53	75.26
m1 = 0.1003	1007.7	75.22
m1 = 0.2003	1018	75.2
m1 = 0.3001	1028.05	75.23
m1 = 0.5006	1047.46	75.44
m1 = 0.7497	1070.41	75.93
m1 = 1	1092.29	76.61
m1 = 1.494	1132.32	78.38
m1 = 1.999	1169.44	80.61
